Measured values from ChEMBL document CHEMBL1127269, “Synthesis and DNA binding properties of a series of N to C linked and imidazole containing analogues of distamycin” (Bioorg Med Chem Lett, 1994).

Experiments:
Type in all cases: nucleic-acid assay
Nucleic Acid [1] = assay: Tested for binding association constant against Poly (dA.dT) using ethidium bromide assay
Nucleic Acid [2] = assay: Tested for binding association constant against T4 coliphage DNA using ethidium bromide assay
Nucleic Acid [3] = assay: Tested for binding association constant against Poly (dG-dC) using ethidium bromide assay
Nucleic Acid [4] = assay: Tested for binding association constant against calf thymus using ethidium bromide assay; conditions: Bos taurus
Nucleic Acid [5] = assay: Tested for binding association constant against calf thymus DNA using ethidium bromide assay; conditions: Bos taurus

**Q.** `CN(C)CCNC(=O)c1nc(NC(=O)c2nc(NC(=O)CCNC(=O)c3nc(NC=O)cn3C)cn2C)cn1C` was tested. Which K app (Nucleic Acid [1]) did it give?
**A.** 250000 M⁻¹

**Q.** And the K app (Nucleic Acid [2])?
**A.** 1.9e+06 M⁻¹

**Q.** What about the K app (Nucleic Acid [3]) of the same compound?
**A.** 5.2e+06 M⁻¹

**Q.** What about the K app (Nucleic Acid [4]) of the same compound?
**A.** 1.6e+06 M⁻¹

**Q.** With `CN(C)CCNC(=O)c1nc(NC(=O)c2nc(NC(=O)CCCNC(=O)c3nc(NC=O)cn3C)cn2C)cn1C` as the compound, how does the K app (Nucleic Acid [1]) read?
**A.** 50000 M⁻¹

**Q.** What about the K app (Nucleic Acid [2]) of the same compound?
**A.** 140000 M⁻¹

**Q.** And the K app (Nucleic Acid [3])?
**A.** 92000 M⁻¹

**Q.** And the K app (Nucleic Acid [4])?
**A.** 48000 M⁻¹

**Q.** What does the source list for `CN(C)CCNC(=O)c1nc(NC(=O)CCCNC(=O)c2nc(NC=O)cn2C)cn1C`?
**A.** K app (Nucleic Acid [1]): 10000 M⁻¹; K app (Nucleic Acid [2]): 33000 M⁻¹; K app (Nucleic Acid [3]): 21000 M⁻¹; K app (Nucleic Acid [4]): 10000 M⁻¹

**Q.** Which results are given for `CN(C)CCNC(=O)c1nc(NC(=O)CCNC(=O)c2nc(NC=O)cn2C)cn1C`?
**A.** K app (Nucleic Acid [1]): 12000 M⁻¹; K app (Nucleic Acid [2]): 140000 M⁻¹; K app (Nucleic Acid [3]): 580000 M⁻¹; K app (Nucleic Acid [4]): 150000 M⁻¹

**Q.** For `Cn1cc(NC(=O)c2cc(NC(=O)c3cc(NC=O)cn3C)cn2C)cc1C(=O)NCCC(=N)N`, which K app (Nucleic Acid [1]) is on record?
**A.** 3.48e+07 M⁻¹

**Q.** What about the K app (Nucleic Acid [2]) of the same compound?
**A.** 650000 M⁻¹

**Q.** And the K app (Nucleic Acid [3])?
**A.** 200000 M⁻¹

**Q.** And the K app (Nucleic Acid [5])?
**A.** 770000 M⁻¹
